In US12077555B2, “STAT degraders and uses thereof” (Kymera Therapeutics, Inc., priority 2019, dated 2024):

biological target: STAT3 (Homo sapiens, UniProt P40763); test: Quantitation of STAT3 degradation in A549 cells by Western blot; assay type: cell-based; design: expressed in transfected cells; host or cells: A549; conditions: 24 hours, tested up to 30 μM or 10 μM, read-out: A549 DC50
Method: Degradation of total cellular STAT3 protein in A549 was quantitatively measured using SDS-PAGE and Western blot analysis. A549 cells (5×10^5 cells/well, 2 mL) were seeded into 6-well plates and were incubated in the incubator under 5% CO2 overnight to reach ˜80% confluency. The next day, the culture medium was changed with 1 ml fresh media. Then, 1 mL of media containing 2× compound solution was added into the well to make the final concentration of 30 μM, 10 μM, 3 μM, 1 μM, 0.3 μM and 0 μM (DMSO). The media was thoroughly mixed and incubated for 24 hours at 37° C. under 5% CO2. Then, the culture media was removed from the assay plates and the cells were washed with ice-cold PBS twice. To prepare cell lysates, 200 ul pre-chilled RIPA lysis buffer (Boston BioProducts BP-115D) with protease/phosphatase inhibitor (Roche 05892791001/Roche 04906837001) was added directly into the well to lyse the cells for 20 minutes on ice. The cell lysates were then transferred to centrifuge tubes. Insoluble part of lysates was removed by centrifuging the lysates at 13000 rpm for 20 minutes. The supernatant was then collected and mixed with 5× loading buffer (Beyotime Bio P0015) to make the final samples for SDS-PAGE analysis. The samples were heated at 100° C. for 10 minutes and cool to room temperature before centrifuging at 13000 rpm for 20 minutes. To analyze the samples by SDS-PAGE, 10 ul samples were loaded onto SDS-PAGE gel (Novex, WG1403BOX) and the SDS-PAGE gel was run for 20 minutes at 80 V, then at 120 V for 1.5 hours. The SDS-PAGE gel was then transferred to nitrocellulose membrane using the wet-transfer method at 250 mA for 1.5 hours. The membrane was then blocked with LI-COR blocking buffer (LI-COR, 927-50000) for 1 hour and was probed with primary antibody (mouse anti-STAT3 (124H6) (CST #91395) 1:2000 or mouse anti-beta-Actin (8H10D10) (CST #3700) 1:10000) at 4° C. overnight. The membrane was then washed three times with TBST buffer and probed with secondary antibody (anti-mouse IgG (LI-COR, 926-68070), 1:5000) for 1 hour at room temperature. The membrane was then scanned on a LI-COR Odyssey instrument and was quantified using Image Studio Version 5.2. Concentration at 50% degradation (DC50) was calculated by fitting dose dependent degradation data using a sigmoidal equation using GraphPad Prism Version 8.0.

Sequence of STAT3 (P40763 whole entry): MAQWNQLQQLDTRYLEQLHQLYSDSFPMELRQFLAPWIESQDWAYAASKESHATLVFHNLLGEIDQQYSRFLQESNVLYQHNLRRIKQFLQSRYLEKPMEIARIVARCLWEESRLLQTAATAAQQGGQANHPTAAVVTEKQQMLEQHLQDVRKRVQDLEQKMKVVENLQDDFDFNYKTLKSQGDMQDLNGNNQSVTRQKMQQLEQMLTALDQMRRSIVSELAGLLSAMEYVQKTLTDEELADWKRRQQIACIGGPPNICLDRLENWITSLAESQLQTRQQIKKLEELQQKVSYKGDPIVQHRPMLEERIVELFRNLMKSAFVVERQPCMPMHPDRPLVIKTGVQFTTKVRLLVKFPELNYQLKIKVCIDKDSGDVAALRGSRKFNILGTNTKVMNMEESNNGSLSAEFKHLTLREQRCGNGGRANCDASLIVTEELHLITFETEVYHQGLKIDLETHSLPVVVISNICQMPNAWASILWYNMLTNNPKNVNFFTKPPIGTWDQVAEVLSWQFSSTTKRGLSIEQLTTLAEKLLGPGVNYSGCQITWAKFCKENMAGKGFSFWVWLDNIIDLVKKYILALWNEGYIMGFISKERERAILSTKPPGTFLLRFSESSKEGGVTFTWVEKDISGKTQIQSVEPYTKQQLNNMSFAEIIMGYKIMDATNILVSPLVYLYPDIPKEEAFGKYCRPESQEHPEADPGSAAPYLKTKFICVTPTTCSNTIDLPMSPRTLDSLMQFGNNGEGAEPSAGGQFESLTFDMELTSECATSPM

SMILES | DC50
C/C(=C\C(=O)N[C@H]1CCc2cccc3c2N(C1=O)[C@H](C(=O)N[C@@H](CCC(N)=O)[C@@H](C)OCc1ccc(CCCCC(=O)N[C@H](C(=O)N2C[C@H](O)C[C@H]2C(=O)NCc2ccc(-c4scnc4C)cc2)C(C)(C)C)cc1)C3)c1ccc(CP(=O)(O)O)cc1 [Compound I-80, diammonium [4-[(1E)-1-[[(2S,11S)-2-[[(3S,4R)-1-carbamoyl-4-[[4-(4-[[(2S)-1-[(2S,4R)-4-hydroxy-2-([[4-(4-methyl-1,3-thiazol-5-yl)phenyl]methyl]carbamoyl)pyrrolidin-1-yl]-3,3-dimethyl-1-oxobutan-2-yl]carbamoyl]butyl)phenyl]methoxy]pentan-3-yl]carbamoyl]-12-oxo-1-azatricyclo[6.4.1.0^[4,13]]trideca-4(13),5,7-trien-11-yl]carbamoyl]prop-1-en-2-yl]phenyl]methylphosphonate] | > 30 µM
Cc1ncsc1-c1ccc(CNC(=O)[C@@H]2C[C@@H](O)CN2C(=O)[C@@H](NC(=O)CCCCc2ccc(CO[C@H](C)[C@H](CCC(N)=O)NC(=O)[C@@H]3Cc4cccc5c4N3C(=O)[C@@H](NC(=O)c3cc4cc(CP(=O)(O)O)ccc4[nH]3)CC5)cc2)C(C)(C)C)cc1 [Compound I-82, diammonium (2-[[(2S,11S)-2-[[(3S,4R)-1-carbamoyl-4-[[4-(4-[[(2S)-1-[(2S,4R)-4-hydroxy-2-([[4-(4-methyl-1,3-thiazol-5-yl)phenyl]methyl]carbamoyl)pyrrolidin-1-yl]-3,3-dimethyl-1-oxobutan-2-yl]carbamoyl]butyl)phenyl]methxy]opentan-3-yl]carbamoyl]-12-oxo-1-azatricyclo[6.4.1.0^[4,13]]trideca-4(13),5,7-trien-11-yl]carbamoyl]-1H-indo1-5-yl)methylphosphonate] | > 30 µM

same assay, conditions: read-out: A549 DC50, 24 hours, tested up to 30 μM or 10 μM

SMILES | DC50
C/C(=C\C(=O)N[C@H]1CCc2cccc3c2N(C1=O)[C@H](C(=O)NC(CCC(N)=O)[C@@H](C)OCc1ccc(CCCOCCCCCc2ccc4c(c2)n(C)c(=O)n4C2CCC(=O)NC2=O)cc1)C3)c1ccc(C(F)(F)P(=O)(OCOC(=O)C(C)(C)C)OCOC(=O)C(C)(C)C)cc1 (stereo partly drawn) [Compound I-36, [([4-[(1E)-1-[[(2S,11S)-2-[[(3S,4R)-1-carbamoyl-4-([4-[3-([5-[1-(2,6-dioxopiperidin-3-yl)-3-methyl-2-oxo-1,3-benzodiazol-5-yl]pentyl]oxy)propyl]phenyl]methoxy)pentan-3-yl]carbamoyl]-12-oxo-1-azatricyclo[6.4.1.0^[4,13]]trideca-4(13),5,7-trien-11-yl]carbamoyl]prop-1-en-2-yl]phenyl]difluoromethyl([(2,2-dimethylpropanoyl)oxy]methoxy)phosphoryl)oxy]methyl 2,2-dimethylpropanoate] | > 10 µM
C/C(=C\C(=O)N[C@H]1CCc2cccc3c2N(C1=O)[C@H](C(=O)NC(CCC(N)=O)[C@@H](C)OCc1ccc(CCCOCCOCC(=O)N[C@H](C(=O)N2C[C@H](O)C[C@H]2C(=O)NCc2ccc(-c4scnc4C)cc2)C(C)(C)C)cc1)C3)c1ccc(C(F)(F)P(=O)(OCOC(=O)C(C)(C)C)OCOC(=O)C(C)(C)C)cc1 (some centres unmarked) [Compound I-37] | > 10 µM
C/C(=C\C(=O)N[C@H]1CCc2cccc3c2N(C1=O)[C@H](C(=O)N[C@@H](CCC(N)=O)[C@@H](C)OCc1ccc(CCCCCOCCCc2cccc4c2n(C)c(=O)n4C2CCC(=O)NC2=O)cc1)C3)c1ccc(C(F)(F)P(=O)(OCOC(=O)C(C)(C)C)OCOC(=O)C(C)(C)C)cc1 (stereo partly drawn) [Compound I-38, [([4-[(1E)-1-[[(2S,11S)-2-[[(3S,4R)-1-carbamoyl-4-[[4-(5-[3-[1-(2,6-dioxopiperidin-3-yl)-3-methyl-2-oxo-1,3-benzodiazol-4-yl]propoxy]pentyl)phenyl]methoxy]pentan-3-yl]carbamoyl]-12-oxo-1-azatricyclo[6.4.1.0^[4,13]]trideca-4(13),5,7-trien-11-yl]carbamoyl]prop-1-en-2-yl]phenyl]difluoromethyl([(2,2-dimethylpropanoyl)oxy]methoxy)phosphoryl)oxy]methyl 2,2-dimethylpropanoate] | > 10 µM
C/C(=C\C(=O)N[C@H]1CCc2cccc3c2N(C1=O)[C@H](C(=O)NC(CCC(N)=O)[C@@H](C)OCc1ccc(CCCOCCCCCOCCCc2cccc4c2n(C)c(=O)n4C2CCC(=O)NC2=O)cc1)C3)c1ccc(C(F)(F)P(=O)(OCOC(=O)C(C)(C)C)OCOC(=O)C(C)(C)C)cc1 (some centres unmarked) [Compound I-43] | > 30 µM
C/C(=C\C(=O)N[C@H]1CCc2cccc3c2N(C1=O)[C@H](C(=O)NC(CCC(N)=O)[C@@H](C)OCc1ccc(CCCOCCCCCCOCCCc2cccc4c2n(C)c(=O)n4C2CCC(=O)NC2=O)cc1)C3)c1ccc(C(F)(F)P(=O)(OCOC(=O)C(C)(C)C)OCOC(=O)C(C)(C)C)cc1 (some centres unmarked) [Compound I-44] | > 30 µM
C/C(=C\C(=O)N[C@H]1CCc2cccc3c2N(C1=O)[C@H](C(=O)N[C@@H](CCC(N)=O)[C@@H](C)OCc1ccc(CCCOCCOCCCc2ccc4c(c2)n(C)c(=O)n4C2CCC(=O)NC2=O)cc1)C3)c1ccc(C(F)(F)P(=O)(OCOC(=O)C(C)(C)C)OCOC(=O)C(C)(C)C)cc1 (some centres unmarked) [Compound I-54] | > 30 µM
C/C(=C\C(=O)N[C@H]1CCc2cccc3c2N(C1=O)[C@H](C(=O)N[C@@H](CCC(N)=O)[C@@H](C)OCc1ccc(CCCOCCOCCOCCCc2ccc4c(c2)n(C)c(=O)n4C2CCC(=O)NC2=O)cc1)C3)c1ccc(C(F)(F)P(=O)(OCOC(=O)C(C)(C)C)OCOC(=O)C(C)(C)C)cc1 (some centres unmarked) [Compound I-55] | > 30 µM
CCCC[C@H](NC(=O)/C=C(\C)c1ccc(C(F)(F)P(=O)(OCOC(=O)C(C)(C)C)OCOC(=O)C(C)(C)C)cc1)C(=O)N1C[C@H]2C[C@H]2[C@H]1C(=O)N[C@@H](CCC(N)=O)[C@@H](C)OCc1ccc(CCCNC(=O)COCCOCCCc2ccc3c(c2)n(C)c(=O)n3C2CCC(=O)NC2=O)cc1 (stereo partly drawn) [Compound I-58, [([4-[(1E)-1-[[(2S)-1-[(1R,2S,5S)-2-[[(3S,4R)-1-carbamoyl-4-[(4-[3-[2-(2-[3-[1-(2,6-dioxopiperidin-3-yl)-3-methyl-2-oxo-1,3-benzodiazol-5-yl]propoxy]ethoxy)acetamido]propyl]phenyl)methoxy]pentan-3-yl]carbamoyl]-3-azabicyclo[3.1.0]hexan-3-yl]-1-oxohexan-2-yl]carbamoyl]prop-1-en-2-yl]phenyl]difluoromethyl([(2,2-dimethylpropanoyl)oxy]methoxy)phosphoryl)oxy]methyl 2,2-dimethylpropanoate] | > 30 µM
CCCC[C@H](NC(=O)/C=C(\C)c1ccc(C(F)(F)P(=O)(OCOC(=O)C(C)(C)C)OCOC(=O)C(C)(C)C)cc1)C(=O)N1C[C@H]2C[C@H]2[C@H]1C(=O)N[C@@H](CCC(N)=O)[C@@H](C)OCc1ccc(CCCNC(=O)COCCOCCOCCCc2ccc3c(c2)n(C)c(=O)n3C2CCC(=O)NC2=O)cc1 (stereo partly drawn) [Compound I-59, [([4-[(1E)-1-[[(2S)-1-[(1R,2S,5S)-2-[[(3S,4R)-1-carbamoyl-4-[[4-(3-[2-[2-(2-[3-[1-(2,6-dioxopiperidin-3-yl)-3-methyl-2-oxo-1,3-benzodiazol-5-yl]propoxy]ethoxy)ethoxy]acetamido]propyl)phenyl]methoxy]pentan-3-yl]carbamoyl]-3-azabicyclo[3.1.0]hexan-3-yl]-1-oxohexan-2-yl]carbamoyl]prop-1-en-2-yl]phenyl]difluoromethyl([(2,2-dimethylpropanoyl)oxy]methoxy)phosphoryl)oxy]methyl 2,2-dimethylpropanoate] | > 30 µM
C/C(=C\C(=O)N[C@H]1CCc2cccc3c2N(C1=O)[C@H](C(=O)N[C@@H](CCC(N)=O)[C@@H](C)OCc1ccc(CCCOCCOCCOCCOCCCc2ccc4c(c2)n(C)c(=O)n4C2CCC(=O)NC2=O)cc1)C3)c1ccc(C(F)(F)P(=O)(OCOC(=O)C(C)(C)C)OCOC(=O)C(C)(C)C)cc1 (some centres unmarked) [Compound I-60] | > 30 µM
C/C(=C\C(=O)N[C@H]1CCc2cccc3c2N(C1=O)[C@H](C(=O)N[C@@H](CCC(N)=O)[C@@H](C)OCc1ccc(CCCNC(=O)COCCCc2ccc4c(c2)n(C)c(=O)n4C2CCC(=O)NC2=O)cc1)C3)c1ccc(C(F)(F)P(=O)(OCOC(=O)C(C)(C)C)OCOC(=O)C(C)(C)C)cc1 (some centres unmarked) [Compound I-68] | > 30 µM
C/C(=C\C(=O)N[C@H]1CCc2cccc3c2N(C1=O)[C@H](C(=O)N[C@@H](CCC(N)=O)[C@@H](C)OCc1ccc(CCCCCC(=O)N[C@H](C(=O)N2C[C@H](O)C[C@H]2C(=O)NCc2ccc(-c4scnc4C)cc2)C(C)(C)C)cc1)C3)c1ccc(C(F)(F)P(=O)(OCOC(=O)C(C)(C)C)OCOC(=O)C(C)(C)C)cc1 [Compound I-71] | < 30 µM
